Data set [1] addresses JAK2 (Homo sapiens (Human), UniProt O60674). The data set is described as follows: JAK2 inhibition assay. Type of data set: biochemical. On the procedure:
After 90 min at 30° C., reactions were stopped by adding of 25 μL/well of 150 mM phosphoric acid. […] Plates were washed 6 times with 300 μL per well of a 75 mM phosphoric acid solution and the bottom of the plates was sealed. 40 μL/well of Microscint-20 was added, the top of the plates was sealed and readout was performed using the Topcount (Perkin Elmer). Kinase activity was calculated by subtracting counts per minute (cpm) obtained in the presence of a positive control inhibitor (10 μM staurosporine) from cpm obtained in the presence of vehicle. The ability of a test compound to inhibit this activity was determined as:
Percentage inhibition=((cpm determined for sample with test compound present−cpm determined for sample with positive control inhibitor)divided by(cpm determined in the presence of vehicle−cpm determined for sample with positive control inhibitor))*100.
Dose dilution series were prepared for the compounds enabling the testing of dose-response effects in the JAK2 assay and the calculation of the IC50 for each compound.

The subject of data set [2] is TNF release in vivo. The data set is described as follows: Septic shock model (LPS-induced TNF release). More on the design: species or system mouse. The note with it: BALB/cJ mice, 30 mg/kg, po, LPS 15 μg/kg ip. Here is the method: Injection of lipopolysaccharide (LPS) induces a rapid release of soluble tumour necrosis factor (TNF-alpha) into the periphery. This model was used to analyse prospective blockers of TNF release in vivo. Six BALB/cJ female mice (20 g) per group were treated at the intended dosing once, po. Thirty minutes later, LPS (15 μg/kg; E. Coli serotype 0111:B4) was injected ip. Ninety minutes later, mice were euthanized and blood was collected. Circulating TNF alpha levels were determined using commercially available ELISA kits. Dexamethasone ([…]) was used as a reference anti-inflammatory compound. Selected compounds were tested at one or multiple doses, e.g. 3 and/or 10 and/or 30 mg/kg, po.

Data set [3] in a line: Aqueous solubility. Conditions: kinetic from dmso stock. It counts as physicochemical. On the procedure: Starting from a 10 mM stock in DMSO, a serial dilution of the compound was prepared in DMSO. The dilution series was transferred to a 96 NUNC Maxisorb plate F-bottom (Cat no. 442404) and 0.2M phosphate buffer pH7.4 or 0.1M citrate buffer pH 3.0 at room temperature was added.
The final concentration ranged from 200 μM to 2.5 μM in 5 equal dilution steps. […] 200 μM Pyrene was added to the corner points of each 96 well plate and served as a reference point for calibration of Z-axis on the microscope.
The assay plates were sealed and incubated for 1 hr at 37° C. while shaking at 230 rpm. The plates were then scanned under a white light microscope, yielding individual pictures of the precipitate per concentration. The precipitate was analyzed and converted into a number which was plotted onto a graph. The first concentration at which the compound appears completely dissolved is the concentration is reported below, however the true concentration lies somewhere between this concentration and one dilution step higher.
Solubility values are reported in μg/mL

Data set [4] in a line: Caco2 permeability. Type of data set: in vitro ADME. The note with it: human; for efflux ratio at 1 h, 10 µM: Caco-2, pH 7.4, Papp B>A/Papp A>B; for Papp at 1 h, 10 µM: pH 7.4, Caco-2, 10 μM. On the procedure: Bi-directional Caco-2 assays were performed as described below. Caco-2 cells were obtained from European Collection of Cell Cultures (ECACC, cat 86010202) and used after a 21 day cell culture in 24-well Transwell plates (Fisher TKT-545-020B).
2×10^5 cells/well were seeded in plating medium consisting of DMEM+GlutaMAXI+1% NEAA+10% FBS (FetalClone II)+1% Pen/Strep. The medium was changed every 2-3 days.
Test and reference compounds (propranolol and rhodamine123 or vinblastine, all purchased from Sigma) were prepared in Hanks' Balanced Salt Solution containing 25 mM HEPES (pH7.4) and added to either the apical (125 μL) or basolateral (600 μL) chambers of the Transwell plate assembly at a concentration of 10 μM with a final DMSO concentration of 0.25%.
50 μM Lucifer Yellow (Sigma) was added to the donor buffer in all wells to assess integrity of the cell layers by monitoring Lucifer Yellow permeation. As Lucifer Yellow (LY) cannot freely permeate lipophilic barriers, a high degree of LY transport indicates poor integrity of the cell layer.
After a 1 hr incubation at 37° C. while shaking at an orbital shaker at 150 rpm, 70 μL aliquots were taken from both apical (A) and basal (B) chambers and added to 100 μL1 50:50 acetonitrile:water solution containing analytical internal standard (0.5 μM carbamazepine) in a 96 well plate.
Concentrations of compound in the samples were measured by high performance liquid-chromatography/mass spectroscopy (LC-MS/MS).
The Efflux ratios, as an indication of active efflux from the apical cell surface, were calculated using the ratio of Papp B>A/Papp A>B.
(In general: Caco-2 cells form a polarised layer with tight junctions and transporters.)

Data set [5] is described as follows: Plasma protein binding (equilibrium dialysis), human. It counts as in vitro ADME. Conditions: 10 μM, 4 hrs at 37° C. Here is the method:
A 10 mM stock solution of the compound in DMSO was diluted with a factor 5 in DMSO. This solution was further diluted in freshly thawed human, rat, mouse or dog plasma (BioReclamation INC) with a final concentration of 10 μM and final DMSO concentration of 0.5% (5.5 μL in 1094.5 μL plasma in a PP-Masterblock 96 well (Greiner, Cat no. 780285))
A Pierce Red Device plate with inserts (ThermoScientific, Cat no. 89809) was prepared and filled with 750 μL PBS in the buffer chamber and 500 μL of the spiked plasma in the plasma chamber. The plate was incubated for 4 hrs at 37° C. while shaking at 230 rpm. After incubation, 120 μL of both chambers was transferred to 360 μL acetonitrile in a 96-well round bottom, PP deep-well plates (Nunc, Cat no. 278743) and sealed with an aluminum foil lid. The samples were mixed and placed on ice for 30 min. This plate was then centrifuged 30 min at 1200 rcf at 4° C. and the supernatant was transferred to a 96 v-bottom PP plate (Greiner, 651201) for analysis on LCMS.
The plate is sealed with sealing mats (MA96RD-04S) of www.kinesis.co.uk and samples are measured at room temperature on LCMS (ZQ 1525 from Waters) under optimized conditions using Quanoptimize to determine the appropriate mass of the molecule.
The samples were analyzed on LCMS with a flow rate of […]. Solvent A was 15 mM ammonia and solvent B was acetonitrile. The sample was run under positive ion spray on an XBridge C18 3.5 μM (2.1×30 mm) column, from Waters. The solvent gradient has a total run time of 2 minutes and ranges from 5% B to 95% B.
Peak area from the compound in the buffer chamber and the plasma chamber are considered to be 100% compound.
On the technique in general: In equilibrium dialysis only unbound substance equilibrates across the membrane.

Where [6] appears, read: 0.2 M phosphate buffer pH 7.4, 37 °C, pH 7.4, aqueous buffer, 0.2M phosphate buffer pH7.4, read-out: Aqueous solubility pH 7.4.
[7] abbreviates: 37 °C, aqueous buffer, 0.1M citrate buffer pH 3.0, read-out: Aqueous solubility pH 3.0.

Molecules are shown by their SMILES. “And” between values parts separate entries of the source, which are not always exact repeats. Equal values may be shown once. Read-outs that look alike come from different tables or passages of the source.

This is an account of results in US8563545B2, “Compound useful for the treatment of degenerative and inflammatory diseases” (Galapagos NV, priority 2009, dated 2013).

What is called IC50 is the point on the concentration scale where inhibition reaches its midpoint. A lower IC50 goes with greater potency in that assay. A word on the solubility: it is the concentration that dissolves in the medium under given conditions. As usually defined, the efflux ratio is the permeability from basolateral to apical divided by that in the opposite direction, in the common usage. For orientation: Papp means the rate of passage across a membrane or cell layer, normalised by area and donor concentration. The low end stands for slow passage, the high end for fast passage.

Chain of JAK2 (O60674 808-1132): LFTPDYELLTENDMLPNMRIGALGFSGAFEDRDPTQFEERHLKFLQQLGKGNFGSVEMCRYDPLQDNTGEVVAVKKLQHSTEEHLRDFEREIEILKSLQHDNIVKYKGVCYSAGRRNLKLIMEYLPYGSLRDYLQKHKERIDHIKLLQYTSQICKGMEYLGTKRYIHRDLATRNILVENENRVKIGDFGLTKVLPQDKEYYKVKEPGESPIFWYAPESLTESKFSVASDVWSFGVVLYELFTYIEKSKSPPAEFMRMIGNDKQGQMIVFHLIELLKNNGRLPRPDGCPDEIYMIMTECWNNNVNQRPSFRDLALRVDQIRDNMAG

With `O=C(Nc1nc2cccc(-c3ccc(C(=O)N4CCS(=O)(=O)CC4)cc3)n2n1)C1CC1` [Compound 10, Cyclopropanecarboxylic acid {5-[4-(1,1-dioxo-1-thiomorpholine-4-carbonyl)-phenyl]-[1,2,4]triazolo [1,5-a]pyridin-2-yl}-amide], the midpoint of inhibition in data set [1], the IC50, lay at 65.4 nM. The “activity in septic shock model (circulating TNF alpha)” value (shortened to “activity in septic shock model”) in data set [2] is on record as “active”. Moreover, the solubility at 1 h in data set [3] (setting [6]) and in data set [3] (setting [7]) was greater than 87.9 µg/mL throughout. Also, the efflux ratio at 1 h, 10 µM in data set [4] worked out at 97.6. Besides, the Papp at 1 h, 10 µM in data set [4] stood at 0.05 ×10⁻⁶ cm/s.
For `O=C(Nc1nc2cccc(-c3ccc(CN4CCS(=O)(=O)CC4)cc3)n2n1)C1CC1` [Compound 1, Cyclopropanecarboxylic acid {5-[4-(1,1-dioxo-1-thiomorpholin-4-ylmethyl)-phenyl]-[1,2,4]triazolo [1,5-a]pyridin-2-yl}-amide], the “activity in septic shock model” value in data set [2] is reported as “active”. The solubility at 1 h in data set [3] (setting [6]) and in data set [3] (setting [7]) was greater than 85 µg/mL throughout. Besides, the “percentage bound to plasma, Human” value in data set [5] is recorded as 76.4%. Also, the Papp at 1 h, 10 µM in data set [4] worked out at 3.33 ×10⁻⁶ cm/s.
For the compound `O=C(Nc1nc2cccc(-c3ccc(CN4CCOCC4)cc3)n2n1)C1CC1` [Compound 2, N-(5-(4-(morpholinomethyl)phenyl)-[1,2,4]triazolo[1,5-a]pyridin-2-yl)cyclopropanecarboxamide], the IC50 in data set [1] was 38.7 nM and 152 nM and 185 nM. Further, in data set [2], the “activity in septic shock model” value is “active”. Further, the solubility at 1 h in data set [3] (setting [6]) and in data set [3] (setting [7]) was greater than 38 µg/mL each time. Also, in data set [5], the “percentage bound to plasma, Human” value is on record as 70.5%. This compound also returned a Papp at 1 h, 10 µM in data set [4] of 25 ×10⁻⁶ cm/s.
For `O=C(Nc1nc2cccc(-c3ccc(CN4CCC(F)(F)CC4)cc3)n2n1)C1CC1` [Compound 11, Cyclopropanecarboxylic acid {5-[4-(4,4-difluoro-piperidin-1-ylmethyl)-phenyl]-[1,2,4]triazolo [1,5-a]pyridin-2-yl}-amide], in data set [1], the IC50 was found to be 15.5 nM. For the same compound, the “percentage bound to plasma, Human” value in data set [5] was 91.25%. Also, in data set [4], the efflux ratio at 1 h, 10 µM was 0.9 and the Papp at 1 h, 10 µM was determined as 36.5 ×10⁻⁶ cm/s.
